The target of this test is T1, spFolD (Streptococcus pneumoniae serotype 4, UniProt Q97RI9).
T1 construct: His-tag (TEV-cleavable, vector pHis-TEV); made in house; host or cells: E. coli BL21 (DE3)
The test can be described thus: SPR binding to spFolD. On the set-up: species or system S. pneumoniae. The protocol:
All surface plasmon resonance (SPR) experiments described in this study were performed on a Biacore X100 system. Different FolDs with or without His-tag were coupled on CM5 sensor chips (GE Healthcare) by the amine coupling method using a kit from GE Healthcare Life Sciences (Freiburg, Germany). A pH scouting process was performed before protein immobilization to test the most appropriate buffer and the protein concentration for protein coupling. Finally, 20 μg/mL of ecFolD in 10 mM maleate buffer (pH 6.8), 30 μg/mL of ecFolD Q98H in 10 mM maleate buffer (pH 6.3), 40 μg/mL of ecFolD K54N in 10 mM maleate buffer (pH 5.8), 20 μg/mL of spFolD in 10 mM maleate buffer (pH 6.0) and 15 μg/mL of MTHFD2 (His-tag cleaved) in 10 mM maleate buffer (pH 6.8) were used for coupling. In the protein immobilization procedure, the contact time was calculated based on the pH scouting results to achieve ~3000–5000 relative resonance units (RU). The buffer used in the SPR assays was 1× HBS-P buffer (10 mM HEPES pH 7.4, 150 mM NaCl, 0.05% Tween 20). The 1 mM stock solution of carolacton was prepared in 1× HBS-P buffer and diluted to different concentration ranges by two-fold serial dilution. In the SPR assay, the association time was 180 s and the dissociation time was 600 s. Data analysis was performed using the Biacore evaluation software. […]
Background: SPR reads the build-up and loss of mass on a sensor chip optically.

The text below walks through data of article PMC5688156, “The natural product carolacton inhibits folate-dependent C1 metabolism by targeting FolD/MTHFD” (Nature Communications, 2017).

The Kd is the free concentration of one partner at which half of the binding sites on the other are occupied at equilibrium, for simple one-to-one binding. Low readings indicate tighter binding, high ones weaker binding. For orientation: koff means the rate constant with which the complex falls apart. Lower therefore signals a long-lived complex.

T1 sequence (Q97RI9 whole entry): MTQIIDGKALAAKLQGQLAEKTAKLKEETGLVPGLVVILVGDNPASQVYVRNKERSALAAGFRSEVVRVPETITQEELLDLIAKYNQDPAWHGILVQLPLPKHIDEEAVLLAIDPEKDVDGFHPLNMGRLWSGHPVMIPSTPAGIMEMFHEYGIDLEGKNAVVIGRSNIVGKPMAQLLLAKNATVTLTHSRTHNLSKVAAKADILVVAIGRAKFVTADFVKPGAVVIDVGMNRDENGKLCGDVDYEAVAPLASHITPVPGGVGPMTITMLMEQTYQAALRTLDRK

Consider `CO[C@H](CC(=O)O)[C@@H](C)C(=O)[C@H](C)/C=C(\C)[C@H]1OC(=O)[C@H](O)[C@H](O)/C=C/[C@H](C)CCC[C@@H]1C` [carolacton], for which the affinity, expressed as Kd, was 27 nM and the koff worked out at 0.0316 s⁻¹.
